“Also recorded” adds a separate entry of the source.
Key:
[1] = target: T1, PDGFR-beta (Homo sapiens, UniProt P09619); assay: radiometric protein kinase assay (33PanQinase Activity Assay); format: biochemical; conditions: for Inhibition of Kinases IC50 / IC50: PDGFR-beta, panel of 24 kinases, 1 μM ATP; for IC50: read-out: Inhibition of Kinases IC50
T1 construct: made in house; host or cells: Sf9 insect cells (baculovirus)
From the text: (§1) All protein kinases were expressed in Sf9 insect cells as human recombinant GST-fusion proteins or His-tagged proteins by means of the baculovirus expression system. Kinases were purified by affinity chromatography using either GSH-agarose (Sigma) or Ni-NTH-agarose (Qiagen). The purity of each kinase was checked by SDS-PAGE/silver staining and the identity of each kinase was verified by western blot analysis with kinase specific antibodies or by mass spectroscopy.
(§2) A radiometric protein kinase assay (^33PanQinase® Activity Assay) was used for measuring the kinase activity of the 24 protein kinases. All kinase assays were performed in 96-well FIashPlates™ from Perkin Elmer (Boston, Mass., USA) in a 50 μl reaction volume. The reaction cocktail was pipetted in 4 steps in the following order: • 20 μl of assay buffer • 5 μl of ATP solution (in H2O) • 5 μl of test compound (in 10% DMSO) • 10 μl of substrate/10 μl of enzyme solution (premixed)
(§3) The assay for all enzymes contained 60 mM HEPES-NaOH, pH 7.5, 3 mM MgCl2, 3 mM MnCl2, 3 μM Na-orthovanadate, 1.2 mM DTT, 50 μg/ml PEG20000, 1 μM [γ-^33P]-ATP (approx. 5×10^05 cpm per well).
(§4) The reaction cocktails were incubated at 30° C. for 80 minutes. The reaction was stopped with 50 μl of 2% (v/v) H3PO4, plates were aspirated and washed two times with 200 μl of 0.9% (w/v) NaCl or 200 μl H2O. Incorporation of ^33Pi was determined with a microplate scintillation counter (Microbeta Trilux, Wallac). All assays were performed with a BeckmanCoulter/Sagian robotic system.
(§5) Using the same method described above, compound 31 was evaluated in a panel of 127 kinase enzymes.

[2] = target: T2, VEGF-R3 (Homo sapiens, UniProt P35916); assay: as above; format: biochemical; conditions: for Inhibition of Kinases IC50 / IC50: panel of 24 kinases, 1 μM ATP; for IC50: read-out: Inhibition of Kinases IC50
T2 construct: made in house; host or cells: Sf9 insect cells (baculovirus)
T2 sequence (P35916 25-1363): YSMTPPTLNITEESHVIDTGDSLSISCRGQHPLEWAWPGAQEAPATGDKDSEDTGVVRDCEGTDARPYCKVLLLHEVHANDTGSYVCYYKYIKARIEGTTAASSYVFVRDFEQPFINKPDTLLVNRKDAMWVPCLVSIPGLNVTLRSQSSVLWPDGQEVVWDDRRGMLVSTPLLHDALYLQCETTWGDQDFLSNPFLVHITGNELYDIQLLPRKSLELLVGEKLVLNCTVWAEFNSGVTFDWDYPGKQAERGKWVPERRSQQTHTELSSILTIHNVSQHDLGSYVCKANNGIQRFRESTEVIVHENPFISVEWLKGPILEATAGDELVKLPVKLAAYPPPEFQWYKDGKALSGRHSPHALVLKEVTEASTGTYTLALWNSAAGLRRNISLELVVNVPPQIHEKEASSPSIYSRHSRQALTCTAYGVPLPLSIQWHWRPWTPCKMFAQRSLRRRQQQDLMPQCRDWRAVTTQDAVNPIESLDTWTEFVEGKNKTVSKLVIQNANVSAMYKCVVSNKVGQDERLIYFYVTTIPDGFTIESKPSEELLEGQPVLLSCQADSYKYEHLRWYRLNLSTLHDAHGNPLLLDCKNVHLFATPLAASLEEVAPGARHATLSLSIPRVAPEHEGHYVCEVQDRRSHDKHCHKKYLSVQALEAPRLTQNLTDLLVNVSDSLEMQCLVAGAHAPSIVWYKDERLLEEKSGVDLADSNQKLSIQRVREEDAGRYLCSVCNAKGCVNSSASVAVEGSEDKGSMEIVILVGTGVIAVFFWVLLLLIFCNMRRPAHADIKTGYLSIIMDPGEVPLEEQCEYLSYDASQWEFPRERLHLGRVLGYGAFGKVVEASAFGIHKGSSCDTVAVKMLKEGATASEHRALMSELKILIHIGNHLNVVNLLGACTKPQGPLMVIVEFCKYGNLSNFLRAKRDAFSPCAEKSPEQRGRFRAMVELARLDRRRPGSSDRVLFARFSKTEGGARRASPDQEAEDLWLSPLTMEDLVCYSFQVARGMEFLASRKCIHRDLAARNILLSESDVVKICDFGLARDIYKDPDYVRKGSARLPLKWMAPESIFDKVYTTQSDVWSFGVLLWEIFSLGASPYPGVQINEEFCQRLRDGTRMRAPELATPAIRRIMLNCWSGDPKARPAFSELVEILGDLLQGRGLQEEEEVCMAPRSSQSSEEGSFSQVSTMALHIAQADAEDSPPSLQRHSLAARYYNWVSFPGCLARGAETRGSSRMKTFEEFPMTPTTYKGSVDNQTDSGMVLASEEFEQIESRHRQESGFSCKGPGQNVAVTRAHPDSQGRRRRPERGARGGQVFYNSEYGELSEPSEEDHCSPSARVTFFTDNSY
Experimental: (§6) Radicicol A (1) and analogues 3 and 31 were tested for its inhibition in a panel of 24 kinase (AKT1, ARKS, Aurora-A, Aurora-B, B-RAF-VE, CDK2/CycA, CDK4/CycD1, CK2-α1, FAK, EPHB4, ERB2, EGF-R, IGF1-R, SRC, VEGF-R2, VEGF-R3, FLT3, INS-R, MET, PDGFR-β, PLK1, SAK, TIE2, COT) at 10 μM using the procedure described below.
as §1, §2, §3, §4, §5

[3] = target: T3, FLT3 (Homo sapiens, UniProt P36888); assay: as above; format: biochemical; conditions: for Inhibition of Kinases IC50 / IC50: panel of 24 kinases, 1 μM ATP; for IC50: read-out: Inhibition of Kinases IC50
T3 construct: made in house; host or cells: Sf9 insect cells (baculovirus)
T3 sequence (P36888 27-993): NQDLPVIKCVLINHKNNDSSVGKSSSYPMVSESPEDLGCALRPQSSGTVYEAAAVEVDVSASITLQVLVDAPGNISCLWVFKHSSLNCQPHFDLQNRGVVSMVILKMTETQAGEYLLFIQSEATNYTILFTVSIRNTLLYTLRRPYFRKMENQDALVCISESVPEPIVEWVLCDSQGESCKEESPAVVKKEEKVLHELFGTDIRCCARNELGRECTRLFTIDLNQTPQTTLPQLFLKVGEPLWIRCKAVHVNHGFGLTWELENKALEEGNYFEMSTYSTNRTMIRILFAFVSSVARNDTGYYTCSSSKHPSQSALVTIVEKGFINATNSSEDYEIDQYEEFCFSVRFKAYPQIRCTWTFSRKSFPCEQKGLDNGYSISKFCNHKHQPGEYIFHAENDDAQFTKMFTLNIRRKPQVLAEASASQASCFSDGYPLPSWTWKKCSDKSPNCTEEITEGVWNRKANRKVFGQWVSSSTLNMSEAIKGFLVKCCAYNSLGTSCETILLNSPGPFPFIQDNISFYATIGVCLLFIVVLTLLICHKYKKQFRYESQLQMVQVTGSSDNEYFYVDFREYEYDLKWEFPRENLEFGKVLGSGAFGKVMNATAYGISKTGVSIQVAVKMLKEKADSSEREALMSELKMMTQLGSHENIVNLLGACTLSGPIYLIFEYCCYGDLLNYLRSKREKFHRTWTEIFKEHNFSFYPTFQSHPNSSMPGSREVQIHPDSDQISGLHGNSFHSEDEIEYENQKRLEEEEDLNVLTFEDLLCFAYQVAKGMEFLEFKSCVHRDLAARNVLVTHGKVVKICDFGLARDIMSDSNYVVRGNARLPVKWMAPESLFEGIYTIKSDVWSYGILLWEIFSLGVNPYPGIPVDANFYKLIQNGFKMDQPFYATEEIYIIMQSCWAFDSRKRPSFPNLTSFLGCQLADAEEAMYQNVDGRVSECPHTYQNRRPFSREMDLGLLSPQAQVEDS
Experimental: as §6, §1, §2, §3, §4, §5

[4] = target: T4, SRC (Homo sapiens, UniProt P12931); assay: as above; format: biochemical; conditions: panel of 24 kinases, 1 μM ATP, read-out: Inhibition of Kinases IC50
T4 construct: made in house; host or cells: Sf9 insect cells (baculovirus)
From the text: as §1, §2, §3
(§7) The reaction cocktails were incubated at 30° C. for 80 minutes. […] Incorporation of ^33Pi was determined with a microplate scintillation counter (Microbeta Trilux, Wallac). […]

[5] = target: T5, VEGF-R2 (Homo sapiens, UniProt P35968); assay: as above; format: biochemical; parameters: made in house; host or cells: Sf9 insect cells (baculovirus); conditions: for Inhibition of Kinases IC50 / IC50: panel of 24 kinases, 1 μM ATP; for IC50: read-out: Inhibition of Kinases IC50
T5 sequence (P35968 20-1356): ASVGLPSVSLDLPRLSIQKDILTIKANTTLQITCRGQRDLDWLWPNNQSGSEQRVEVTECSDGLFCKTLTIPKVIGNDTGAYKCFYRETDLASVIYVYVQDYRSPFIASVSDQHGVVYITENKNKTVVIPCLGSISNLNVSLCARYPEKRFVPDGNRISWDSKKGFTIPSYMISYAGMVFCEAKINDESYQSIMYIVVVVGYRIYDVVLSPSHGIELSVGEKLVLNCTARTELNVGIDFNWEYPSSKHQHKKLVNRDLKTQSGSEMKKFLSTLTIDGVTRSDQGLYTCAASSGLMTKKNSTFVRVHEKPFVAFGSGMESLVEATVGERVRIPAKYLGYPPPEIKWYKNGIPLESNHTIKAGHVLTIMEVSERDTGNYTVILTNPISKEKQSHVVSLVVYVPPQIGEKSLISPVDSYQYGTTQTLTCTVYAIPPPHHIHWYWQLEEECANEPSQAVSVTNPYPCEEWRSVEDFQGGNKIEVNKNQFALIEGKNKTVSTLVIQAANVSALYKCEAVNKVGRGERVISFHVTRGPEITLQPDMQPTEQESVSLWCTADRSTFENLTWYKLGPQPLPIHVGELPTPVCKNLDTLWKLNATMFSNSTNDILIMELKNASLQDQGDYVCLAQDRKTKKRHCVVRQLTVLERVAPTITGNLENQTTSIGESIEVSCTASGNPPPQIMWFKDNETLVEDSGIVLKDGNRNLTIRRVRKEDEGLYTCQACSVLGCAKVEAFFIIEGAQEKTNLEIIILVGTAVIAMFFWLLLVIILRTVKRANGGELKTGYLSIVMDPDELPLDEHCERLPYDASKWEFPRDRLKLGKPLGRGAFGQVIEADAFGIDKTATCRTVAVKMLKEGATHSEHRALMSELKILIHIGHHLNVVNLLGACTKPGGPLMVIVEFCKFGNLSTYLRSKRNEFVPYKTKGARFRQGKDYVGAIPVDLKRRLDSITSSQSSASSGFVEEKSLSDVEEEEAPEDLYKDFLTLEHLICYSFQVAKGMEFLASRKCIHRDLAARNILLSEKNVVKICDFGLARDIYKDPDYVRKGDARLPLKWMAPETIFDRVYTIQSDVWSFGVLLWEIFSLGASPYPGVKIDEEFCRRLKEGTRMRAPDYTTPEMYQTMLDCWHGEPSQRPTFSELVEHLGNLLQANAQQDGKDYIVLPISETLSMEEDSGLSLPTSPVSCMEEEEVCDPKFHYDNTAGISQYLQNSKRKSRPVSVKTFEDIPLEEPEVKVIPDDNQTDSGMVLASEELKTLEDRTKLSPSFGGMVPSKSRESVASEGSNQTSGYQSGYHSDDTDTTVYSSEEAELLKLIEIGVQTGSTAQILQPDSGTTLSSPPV
Experimental: as §6, §1, §2, §3, §4, §5

[6] = target: T6, EPHB4 (Homo sapiens, UniProt P54760); assay: as above; format: biochemical; conditions: panel of 24 kinases, 1 μM ATP, read-out: Inhibition of Kinases IC50
T6 construct: made in house; host or cells: Sf9 insect cells (baculovirus)
T6 sequence (P54760 16-987): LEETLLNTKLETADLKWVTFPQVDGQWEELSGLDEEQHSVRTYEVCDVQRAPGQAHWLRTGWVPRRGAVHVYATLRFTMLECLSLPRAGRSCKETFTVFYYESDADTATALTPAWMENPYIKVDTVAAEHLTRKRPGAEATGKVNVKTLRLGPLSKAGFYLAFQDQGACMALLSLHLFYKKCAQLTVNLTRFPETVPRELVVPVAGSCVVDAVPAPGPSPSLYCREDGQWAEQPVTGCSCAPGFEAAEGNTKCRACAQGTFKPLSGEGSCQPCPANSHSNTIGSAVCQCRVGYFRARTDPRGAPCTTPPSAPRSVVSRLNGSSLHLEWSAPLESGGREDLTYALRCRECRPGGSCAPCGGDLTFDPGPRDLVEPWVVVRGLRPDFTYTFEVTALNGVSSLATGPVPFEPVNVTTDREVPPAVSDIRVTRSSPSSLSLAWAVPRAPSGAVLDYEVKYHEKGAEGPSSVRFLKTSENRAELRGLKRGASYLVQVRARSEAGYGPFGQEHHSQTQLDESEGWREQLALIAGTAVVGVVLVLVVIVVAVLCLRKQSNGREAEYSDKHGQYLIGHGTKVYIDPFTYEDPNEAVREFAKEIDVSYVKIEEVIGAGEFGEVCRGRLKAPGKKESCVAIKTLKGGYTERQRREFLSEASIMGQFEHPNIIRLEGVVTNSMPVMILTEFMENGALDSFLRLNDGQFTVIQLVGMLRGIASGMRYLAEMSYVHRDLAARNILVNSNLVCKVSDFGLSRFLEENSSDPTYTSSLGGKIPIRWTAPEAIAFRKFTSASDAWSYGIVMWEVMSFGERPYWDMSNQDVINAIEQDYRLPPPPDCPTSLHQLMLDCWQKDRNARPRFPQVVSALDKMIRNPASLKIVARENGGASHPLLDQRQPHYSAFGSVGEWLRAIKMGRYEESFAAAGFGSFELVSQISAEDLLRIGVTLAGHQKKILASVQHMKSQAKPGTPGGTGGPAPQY
Experimental: as §6, §1
(§8) A radiometric protein kinase assay (^33PanQinase® Activity Assay) was used for measuring the kinase activity of the 24 protein kinases. All kinase assays were performed in 96-well FIashPlates™ from Perkin Elmer (Boston, Mass., USA) in a 50 μl reaction volume. […]
as §7

[7] = target: T7, B-RAF-VE (Homo sapiens, UniProt P15056, V600E); assay: as above; format: biochemical; conditions: panel of 24 kinases, 1 μM ATP, read-out: Inhibition of Kinases IC50
T7 construct: made in house; host or cells: Sf9 insect cells (baculovirus)
T7 sequence (P15056 whole entry V600E): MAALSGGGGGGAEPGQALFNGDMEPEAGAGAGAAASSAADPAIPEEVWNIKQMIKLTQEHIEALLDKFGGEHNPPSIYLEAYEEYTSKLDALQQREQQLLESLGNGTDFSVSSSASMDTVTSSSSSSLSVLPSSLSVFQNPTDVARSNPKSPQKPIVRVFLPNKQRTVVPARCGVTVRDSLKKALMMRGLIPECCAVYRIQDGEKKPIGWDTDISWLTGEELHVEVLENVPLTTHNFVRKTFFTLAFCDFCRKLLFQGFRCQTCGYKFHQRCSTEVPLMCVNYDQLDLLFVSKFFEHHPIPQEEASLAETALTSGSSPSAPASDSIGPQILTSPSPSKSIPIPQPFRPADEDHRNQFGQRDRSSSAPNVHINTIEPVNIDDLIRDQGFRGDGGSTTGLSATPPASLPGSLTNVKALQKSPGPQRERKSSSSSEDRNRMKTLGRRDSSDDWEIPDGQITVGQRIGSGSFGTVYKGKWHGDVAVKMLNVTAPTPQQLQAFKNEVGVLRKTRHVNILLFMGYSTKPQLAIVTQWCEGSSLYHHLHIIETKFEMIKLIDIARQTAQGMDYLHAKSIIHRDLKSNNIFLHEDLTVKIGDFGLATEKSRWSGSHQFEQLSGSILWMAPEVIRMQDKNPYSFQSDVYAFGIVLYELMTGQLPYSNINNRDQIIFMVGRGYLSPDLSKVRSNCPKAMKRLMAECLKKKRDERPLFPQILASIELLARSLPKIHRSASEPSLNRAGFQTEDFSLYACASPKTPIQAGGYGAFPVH
Experimental: as §6, §1, §8, §7

[8] = target: T8, PDGFR-α (Homo sapiens, UniProt P16234); assay: panel of 127 kinases, radiometric protein kinase assay; format: biochemical; conditions: FIG. 1, result in words
T8 construct: made in house; host or cells: Sf9 insect cells (baculovirus)
From the text: as §1, §2, §3, §7, §5

[9] = target: T9, MEK1 (Homo sapiens, UniProt Q02750); assay: as above; format: biochemical; conditions: FIG. 1, result in words
T9 construct: made in house; host or cells: Sf9 insect cells (baculovirus)
T9 sequence (Q02750 whole entry): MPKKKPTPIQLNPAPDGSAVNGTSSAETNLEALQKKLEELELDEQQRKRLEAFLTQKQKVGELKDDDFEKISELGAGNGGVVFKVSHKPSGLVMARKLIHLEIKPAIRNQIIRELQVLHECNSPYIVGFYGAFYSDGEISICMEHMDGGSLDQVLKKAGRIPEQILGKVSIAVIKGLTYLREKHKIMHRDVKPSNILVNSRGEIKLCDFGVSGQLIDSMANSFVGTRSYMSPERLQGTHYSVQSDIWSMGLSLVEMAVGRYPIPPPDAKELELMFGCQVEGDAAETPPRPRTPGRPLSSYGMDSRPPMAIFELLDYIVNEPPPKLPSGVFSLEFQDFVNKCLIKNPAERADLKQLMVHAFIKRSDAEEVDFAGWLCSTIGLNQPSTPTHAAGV
From the text: as §1, §2, §3, §7, §5

[10] = target: PDGFR-β (Homo sapiens, UniProt P09619); assay: PDGFR-β autophosphorylation; format: cell-based; conditions: cellular autophosphorylation
PDGFR-β, sequence (P09619 33-1106, species assumed): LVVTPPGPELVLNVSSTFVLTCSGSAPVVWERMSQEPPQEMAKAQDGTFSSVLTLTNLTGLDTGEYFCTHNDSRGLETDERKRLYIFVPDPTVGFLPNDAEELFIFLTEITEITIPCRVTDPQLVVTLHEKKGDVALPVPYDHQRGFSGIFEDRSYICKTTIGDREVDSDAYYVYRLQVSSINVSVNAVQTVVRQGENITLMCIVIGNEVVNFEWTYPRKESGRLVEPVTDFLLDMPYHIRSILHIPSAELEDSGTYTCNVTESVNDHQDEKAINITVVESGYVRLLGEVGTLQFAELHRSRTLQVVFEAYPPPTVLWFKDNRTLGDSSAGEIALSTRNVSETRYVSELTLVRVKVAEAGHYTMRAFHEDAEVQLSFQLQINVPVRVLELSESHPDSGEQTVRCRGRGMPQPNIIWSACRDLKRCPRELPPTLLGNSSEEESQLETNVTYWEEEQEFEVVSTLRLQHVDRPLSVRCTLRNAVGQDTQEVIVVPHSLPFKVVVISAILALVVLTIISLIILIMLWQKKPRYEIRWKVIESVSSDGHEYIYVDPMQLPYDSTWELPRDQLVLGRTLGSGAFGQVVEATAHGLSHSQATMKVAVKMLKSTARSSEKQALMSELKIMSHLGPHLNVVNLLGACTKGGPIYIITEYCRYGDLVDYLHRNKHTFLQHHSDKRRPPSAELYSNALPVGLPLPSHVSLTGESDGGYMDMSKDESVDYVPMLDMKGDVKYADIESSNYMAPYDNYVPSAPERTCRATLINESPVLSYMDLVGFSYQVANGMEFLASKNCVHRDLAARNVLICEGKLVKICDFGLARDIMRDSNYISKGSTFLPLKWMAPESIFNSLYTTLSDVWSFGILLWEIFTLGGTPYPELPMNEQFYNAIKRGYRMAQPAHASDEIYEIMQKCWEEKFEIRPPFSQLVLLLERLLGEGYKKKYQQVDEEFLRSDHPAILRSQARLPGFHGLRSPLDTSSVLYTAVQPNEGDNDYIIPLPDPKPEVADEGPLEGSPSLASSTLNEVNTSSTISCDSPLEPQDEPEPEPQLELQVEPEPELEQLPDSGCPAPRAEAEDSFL

[11] = target: TIE2 (Homo sapiens, UniProt Q02763); assay: autophosphorylation of TIE2; format: cell-based; conditions: cellular autophosphorylation; result in words
[12] = target: T5, VEGF-R2; assay: VEGF-R2 autophosphorylation in presence of VEGF165 in immortalized HUVECs (ELISA); format: cell-based; conditions: 90 min incubation, then VEGF165 for 7 min, read-out: cellular IC50, VEGF-R2 autophosphorylation
Experimental: The potential efficacy of Compound 31 in vivo was assessed by measuring the level of VEGF-R2 autophosphorylation in the presence of its ligand (VEGF165). Thus immortalized HUVECs known to express high levels of VEGF-R2 were incubated with inhibitor 31 for 90 min. and then stimulated with VEGF165 for 7 min. The level of autophosphorylation was measured by ELISA using antiVEGF-R2 as capture antibody and anti-phosphotyrosine as detection antibody. Results are expressed as percentage of maximal autophosphorylation in the absence of inhibitor (FIGS. 1 and 2).
A number of RALs such as pochonins C and D are substituted with a chlorine atom at the 5 position rather than a methoxy, as with analogue 31. […] The potential efficacy of this compound in vivo was then assessed by measuring the level of VEGF-R2 autophosphorylation in the presence of its ligand (VEGF165). […] The level of autophosphorylation was measured by ELISA using antiVEGF-R2 as capture antibody and anti-phosphotyrosine as detection antibody. Results are expressed as percentage of maximal autophosphorylation in the absence of inhibitor (FIG. 3).
The potential efficacy of compound 31 in vivo was assessed by measuring the level of VEGF-R2 autophosphorylation in the presence of its ligand (VEGF165). […] The level of autophosphorylation was measured by ELISA using antiVEGF-R2 as capture antibody and anti-phosphotyrosine as detection antibody. […]

[13] = panel of 127 kinases, FIG. 1, result in words

T1 sequence (P09619 33-1106): as the sequence (P09619 33-1106, species assumed) above

## COc1cc(O)c2c(c1OC)/C=C/C[C@H](O)[C@H](O)C(=O)/C=C\C[C@H](C)OC2=O [Compound 1, Radicicol A]
[1]; listed as Radicicol A
  Inhibition of Kinases IC50: potent inhibitory activity (low nM)
[1]; listed as radicicol A
  Inhibition of Kinases IC50: potent inhibitory activity
[1]
  IC50: 210 nM
[2]; listed as Radicicol A
  Inhibition of Kinases IC50: potent inhibitory activity (low nM)
[2]; listed as radicicol A
  Inhibition of Kinases IC50: potent inhibitory activity
[2]
  IC50: 66 nM
[3]; listed as Radicicol A
  Inhibition of Kinases IC50: potent inhibitory activity (low nM)
[3]; listed as radicicol A
  Inhibition of Kinases IC50: potent inhibitory activity
[3]
  IC50: 110 nM
[4]
  IC50: 9600 nM
[5]; listed as Radicicol A
  Inhibition of Kinases IC50: potent inhibitory activity (low nM)
[5]; listed as radicicol A
  Inhibition of Kinases IC50: potent inhibitory activity
[5]
  IC50: 26 nM
[6]
  IC50: 9100 nM

## COc1cc(O)c2c(c1)/C=C/C[C@H](O)[C@H](O)C(=O)/C=C\C[C@H](C)OC2=O [Compound 3, 5-Z-7-oxozeaenol]
[2]
  Inhibition of Kinases IC50: potent inhibitory activity
  IC50: 110 nM
[3]
  Inhibition of Kinases IC50: potent inhibitory activity
  IC50: 170 nM
[5]
  Inhibition of Kinases IC50: potent inhibitory activity
  IC50: 52 nM
[7]
  IC50: 6300 nM

## COc1cc(O)c2c(c1Cl)/C=C/C[C@H](O)[C@H](O)C(=O)/C=C\C[C@H](C)OC2=O [Compound 31]
[1]
  Inhibition of Kinases IC50: potent inhibitory activity
  IC50: 370 nM
[1]; PDGFR-β, panel of 127 kinases, FIG. 1, result in words
  inhibitory activity (IC50) in a panel of 127 kinases: nanomolar concentrations; also recorded: nM concentrations
[8]
  inhibitory activity (IC50) in a panel of 127 kinases: nanomolar concentrations; also recorded: nM concentrations
[9]
  inhibitory activity (IC50) in a panel of 127 kinases: nanomolar concentrations; also recorded: nM concentrations
[10]
  IC50: 13000 nM
[11]
  autophosphorylation of TIE2: unaffected
[2]
  Inhibition of Kinases IC50: potent inhibitory activity
  IC50: 210 nM
[2]; [13]
  inhibitory activity (IC50) in a panel of 127 kinases: nanomolar concentrations; also recorded: nM concentrations
[3]
  Inhibition of Kinases IC50: potent inhibitory activity
  IC50: 1800 nM
[3]; [13]
  inhibitory activity (IC50) in a panel of 127 kinases: low micromolar concentrations; also recorded: low μM concentrations
[12]
  IC50: 440 nM
[5]
  Inhibition of Kinases IC50: potent inhibitory activity
  IC50: 90 nM
[5]; [13]
  inhibitory activity (IC50) in a panel of 127 kinases: nanomolar concentrations; also recorded: nM concentrations
